Experimental findings from ChEMBL document CHEMBL5674860, “Optimized Dual-Glo Assay to identify co-culture-induced drug vulnerabilities in 3D CRC models” (2024) are described below.

The structures appear in SMILES notation.

Holding throughout (format): functional, Homo sapiens
Design in all cases: dose or concentration left out as unconfirmed

The test system of assay [1] is Colon cancer organoid. Briefly: Optimized Dual-Glo assay to identify co-culture induced drug vulnerabilities using donated chemical probes and chemogenomics kinase set in O06 CRC organoid and F06 CAF mono and co-culture. […] Cell viability is reported both mono and co-culture models.
In assay [2] the test system is Colon cancer organoid. The assay is described as follows: Optimized Dual-Glo assay to identify co-culture induced drug vulnerabilities using donated chemical probes and chemogenomics kinase set in O14 CRC organoid and F14 CAF mono and co-culture. […] Cell viability is reported both mono and co-culture models.
In assay [3] the test system is Colon cancer organoid. The assay is described as follows: Optimized Dual-Glo assay to identify co-culture induced drug vulnerabilities using donated chemical probes and chemogenomics kinase set in O20 CRC organoid and F20 CAF mono and co-culture. […] Cell viability is reported both mono and co-culture models.
[4] abbreviates: Culture type Co-Culture, Transduced with Lucferase2-P2A-EGFP lentivirus.
Setting [5] is: Culture type Co-Culture, Transduced with Renilla-dsRed lentivirus.
The mark [6] stands for this setting: Culture type Mono-Culture, Transduced with Lucferase2-P2A-EGFP lentivirus.
Setting [7] is: Culture type Mono-Culture, Transduced with Renilla-dsRed lentivirus.

For the compound `CN(C(=O)c1ccccc1)c1cc(N(C)c2ccc3c(c2)CCc2ccc(C(=O)NCCN4CCOCC4)cc2C3=O)ccc1F` [FM-743], the “Cell Viability” value came to 67.0526% in assay [1] (setting [4]); 69.6878% in assay [1] (setting [5]); 72.1659% in assay [1] (setting [6]); 109.641% in assay [1] (setting [7]); 83.789% in assay [2] (setting [4]); 122.182% in assay [2] (setting [5]). Further, the “Cell Viability” value in assay [2] (setting [6]) worked out at 115.906%; in assay [2] (setting [7]), 98.7995%; in assay [3] (setting [4]), 87.5807%; in assay [3] (setting [5]), 153.202%; in assay [3] (setting [6]), 104.972%; in assay [3] (setting [7]) it was 128.329%.

Turning to `O=C(NCCN1CCOCC1)c1ccc2c(c1)C(=O)c1ccc(Nc3ccc(F)c(NC(=O)c4ccccc4)c3)cc1CC2` [FS-694], the “Cell Viability” value in assay [1] (setting [4]) came out at 67.8661%; in assay [1] (setting [5]), 67.282%; in assay [1] (setting [6]) it was 66.9088%; in assay [1] (setting [7]), 83.7797%; in assay [2] (setting [4]), 102.563%; in assay [2] (setting [5]) it was 98.243%. Further, the “Cell Viability” value in assay [2] (setting [6]) stood at 144.079%; in assay [2] (setting [7]) it was 81.8914%; in assay [3] (setting [4]) it was 66.004%; in assay [3] (setting [5]) it was 119.038%; in assay [3] (setting [6]), 94.4809%; in assay [3] (setting [7]) it was 79.2545%.

As to `CC(C)(C)OC(=O)N1CCCC1CNC1CCC(c2cc(F)ccc2F)(S(=O)(=O)c2ccc(Cl)cc2)CC1` (stereo not drawn) [GSI-NC], the “Cell Viability” value turned out to be 109.794% in assay [1] (setting [4]); 188.651% in assay [1] (setting [5]); 83.1857% in assay [1] (setting [6]); 79.5795% in assay [1] (setting [7]); 82.5384% in assay [2] (setting [4]); 107.99% in assay [2] (setting [5]). For the same compound, the “Cell Viability” value in assay [2] (setting [6]) amounted to 97.33%; in assay [2] (setting [7]), 95.7632%; in assay [3] (setting [4]), 93.8933%; in assay [3] (setting [5]), 100.789%; in assay [3] (setting [6]), 108.621%; in assay [3] (setting [7]), 95.0953%.

For `CC(=O)Nc1c(F)cc(C(=O)N[C@H]2CC[C@H](O)CC2)cc1O[C@@H](C)c1ccccc1` [GSK046], the “Cell Viability” value is given as 141.493% in assay [1] (setting [4]); 157.689% in assay [1] (setting [5]); 89.308% in assay [1] (setting [6]); 140.24% in assay [1] (setting [7]); 94.8329% in assay [2] (setting [4]); 149.721% in assay [2] (setting [5]). Also, the “Cell Viability” value in assay [2] (setting [6]) was found to be 98.5047%; in assay [2] (setting [7]) it was 138.141%; in assay [3] (setting [4]), 117.929%; in assay [3] (setting [5]), 118.66%; in assay [3] (setting [6]), 59.393%; in assay [3] (setting [7]), 129.379%.

For `CNC(=O)c1cc(C(=O)NC2CC2)cn(Cc2ccccc2)c1=O` [GSK620], the “Cell Viability” value is given as 111.223% in assay [1] (setting [4]); 132.009% in assay [1] (setting [5]); 81.6367% in assay [1] (setting [6]); 131.621% in assay [1] (setting [7]); 179.546% in assay [2] (setting [4]); 145.239% in assay [2] (setting [5]). The “Cell Viability” value in assay [2] (setting [6]) is 105.323%; in assay [2] (setting [7]), 134%; in assay [3] (setting [4]), 92.6025%; in assay [3] (setting [5]) it was 100.747%; in assay [3] (setting [6]) it was 72.9667%; in assay [3] (setting [7]) it was 110.848%.

As for `COCc1nc2cnc3cc(-c4c(C)noc4C)c(OC[C@H]4CCNC4)cc3c2n1[C@H](C)c1ccccc1` [GSK778], the “Cell Viability” value in assay [1] (setting [4]) is 81.063%; in assay [1] (setting [5]) it was 183.714%; in assay [1] (setting [6]) it was 53.5183%; in assay [1] (setting [7]) it was 186.322%; in assay [2] (setting [4]), 59.3767%; in assay [2] (setting [5]), 280.444%. The “Cell Viability” value in assay [2] (setting [6]) stood at 39.3913%; in assay [2] (setting [7]), 175.876%; in assay [3] (setting [4]), 27.5933%; in assay [3] (setting [5]), 143.906%; in assay [3] (setting [6]) it was 31.8546%; in assay [3] (setting [7]), 105.119%.

On to `Cc1cc2c(-c3ccco3)cnc(N[C@@H]3CCN(C)C[C@H]3C(=O)NC3CCCCC3)c2[nH]c1=O` [GSK789], for which the “Cell Viability” value in assay [1] (setting [4]) came to 76.5976%; in assay [1] (setting [5]), 134.369%; in assay [1] (setting [6]), 59.8107%; in assay [1] (setting [7]), 179.691%; in assay [2] (setting [4]), 80.165%; in assay [2] (setting [5]), 245.195%. The “Cell Viability” value in assay [2] (setting [6]) is 48.5278%; in assay [2] (setting [7]), 143.743%; in assay [3] (setting [4]) it was 33.945%; in assay [3] (setting [5]), 125.83%; in assay [3] (setting [6]), 39.8308%; in assay [3] (setting [7]), 103.931%.

For the compound `Cc1cc2c(-c3ccco3)cnc(N[C@H]3CCN(C)C[C@@H]3C(=O)NC3CCCCC3)c2[nH]c1=O` [GSK791], the “Cell Viability” value in assay [1] (setting [4]) was found to be 113.813%; in assay [1] (setting [5]) it was 153.556%; in assay [1] (setting [6]) it was 183.923%; in assay [1] (setting [7]), 92.8694%; in assay [2] (setting [4]) it was 95.0265%; in assay [2] (setting [5]) it was 100.863%. For the same compound, the “Cell Viability” value in assay [2] (setting [6]) is reported as 120.55%; in assay [2] (setting [7]), 112.529%; in assay [3] (setting [4]) it was 101.755%; in assay [3] (setting [5]), 116.18%; in assay [3] (setting [6]), 85.6153%; in assay [3] (setting [7]), 75.9377%.

`CNC(=O)c1cc(C(=O)N[C@H]2[C@@H]3COC[C@@H]32)cc2c1O[C@@H](CF)[C@@H]2c1ccccc1` [GSK943]: the “Cell Viability” value in assay [1] (setting [4]) is reported as 83.6271%; in assay [1] (setting [5]), 130.888%; in assay [1] (setting [6]), 89.2117%; in assay [1] (setting [7]), 119.155%; in assay [2] (setting [4]), 119.043%; in assay [2] (setting [5]), 94.0726%. The “Cell Viability” value is on record as 104.923% in assay [2] (setting [6]); 119.987% in assay [2] (setting [7]); 106.252% in assay [3] (setting [4]); 108.354% in assay [3] (setting [5]); 98.6986% in assay [3] (setting [6]); 128.773% in assay [3] (setting [7]).

As for `CNC(=O)c1cc(C(=O)N[C@H]2[C@@H]3COC[C@@H]32)cc2c1O[C@H](CF)[C@H]2c1ccccc1` [GSK973], the “Cell Viability” value in assay [1] (setting [4]) is recorded as 110.942%; in assay [1] (setting [5]), 170.924%; in assay [1] (setting [6]), 57.9314%; in assay [1] (setting [7]), 146.399%; in assay [2] (setting [4]) it was 93.0111%; in assay [2] (setting [5]), 167.902%. Also, the “Cell Viability” value in assay [2] (setting [6]) stood at 105.165%; in assay [2] (setting [7]), 155.71%; in assay [3] (setting [4]), 97.8368%; in assay [3] (setting [5]), 135.509%; in assay [3] (setting [6]), 77.6772%; in assay [3] (setting [7]), 131.324%.

On to `C[C@@H](Oc1cc(-n2cnc3ccc(CN4CCN(C)CC4)cc32)sc1C(N)=O)c1ccccc1C(F)(F)F` [GSK-461364], for which the “Cell Viability” value in assay [1] (setting [4]) stood at 8.2073%; in assay [1] (setting [5]) it was 127.3%; in assay [1] (setting [6]), 6.274%; in assay [1] (setting [7]) it was 91.647%; in assay [2] (setting [4]), 37.954%; in assay [2] (setting [5]), 173.445%. The “Cell Viability” value in assay [2] (setting [6]) was found to be 46.1468%; in assay [2] (setting [7]), 90.9348%; in assay [3] (setting [4]) it was 36.0345%; in assay [3] (setting [5]) it was 141.481%; in assay [3] (setting [6]), 13.8424%; in assay [3] (setting [7]), 71.1921%.

`O=C(O)c1ccc(-c2c[nH]c3ncc(-c4ccccc4)cc23)cc1C1CCCC1` [GSK-650394]: the “Cell Viability” value in assay [1] (setting [4]) is 150.298%; in assay [1] (setting [5]) it was 125.274%; in assay [1] (setting [6]), 142.061%; in assay [1] (setting [7]), 114.363%; in assay [2] (setting [4]) it was 84.2987%; in assay [2] (setting [5]), 94.4983%. The “Cell Viability” value stood at 153.467% in assay [2] (setting [6]); 103.115% in assay [2] (setting [7]); 93.9419% in assay [3] (setting [4]); 129.576% in assay [3] (setting [5]); 65.3151% in assay [3] (setting [6]); 121.845% in assay [3] (setting [7]).

As for `CCn1cc(-c2ccnc3[nH]c(-c4cccc(CN(C)C)c4)cc23)c(-c2ccc(NC(=O)N(C)C)cc2)n1` [GSK-1070916], the “Cell Viability” value in assay [1] (setting [4]) was 8.589%; in assay [1] (setting [5]) it was 116.692%; in assay [1] (setting [6]), 3.637%; in assay [1] (setting [7]) it was 93.7927%; in assay [2] (setting [4]), 29.7048%; in assay [2] (setting [5]) it was 205.838%. For the same compound, the “Cell Viability” value in assay [2] (setting [6]) is listed as 28.675%; in assay [2] (setting [7]), 102.681%; in assay [3] (setting [4]) it was 9.493%; in assay [3] (setting [5]), 207.056%; in assay [3] (setting [6]), 12.2557%; in assay [3] (setting [7]) it was 100.034%.

As for `COc1ccc(COc2ccc(Cc3cnc(N)nc3N)cc2OC)cc1` [GW632580X], the “Cell Viability” value worked out at 84.8428% in assay [1] (setting [4]); 83.7807% in assay [1] (setting [5]); 109.175% in assay [1] (setting [6]); 109.596% in assay [1] (setting [7]); 102.637% in assay [2] (setting [4]); 115.835% in assay [2] (setting [5]). For the same compound, the “Cell Viability” value in assay [2] (setting [6]) is recorded as 144.397%; in assay [2] (setting [7]), 94.931%; in assay [3] (setting [4]) it was 200.024%; in assay [3] (setting [5]) it was 84.9331%; in assay [3] (setting [6]) it was 115.095%; in assay [3] (setting [7]), 88.8877%.
